Test results published in patent US12522596B2, “Compounds as GLP-1R agonists” (Terns Pharmaceuticals, Inc., priority 2021, dated 2026).

Legend:
[1] = system: rat hepatocytes; assay: Metabolic stability in rat hepatocytes; assay type: in vitro ADME
Description: Test compounds were incubated in rat and human hepatocytes and stability was assessed from the substrate […] approach. Test compounds were dissolved in dimethyl sulfoxide (DMSO) to create a 10 mM Stock, and then further diluted to create a 1000× Working Stock of 1 mM with DMSO in 96-well plates for test compounds and the positive control (midazolam). Vials containing cryopreserved hepatocytes were removed from the liquid nitrogen tank and immediately immersed in a 37° C. water bath. The vials were shaken gently until the contents had thawed and were then immediately emptied into 48 mL of pre-warmed HT Medium in a 50 mL conical tube. Cells remaining in the vial were resuspended with 1.0 mL of pre-warmed HT Medium and added to the conical tube. The tube was capped and then gently inverted several times to resuspend the hepatocytes. The cell suspension was centrifuged at 50×g at room temperature for 5 minutes and the supernatant discarded. The cell pellet was loosened by gently swirling the centrifuge tube and was re-suspended in 4 mL of warm Dulbecco's Modified Eagle medium (DMEM). Cell density was determined by a cell counter by Nexcelom, and DMEM medium was added to obtain a target density of 1×10^6 cells/mL. The assay was carried out in 96-well microtiter plates. Test Compounds were incubated at 1 μM with 1×10^6 cells/mL hepatocytes in DMEM for 0, 30, 60, 120 and 240 minutes. The incubation was carried out with gentle shaking at 37° C. under a humid atmosphere of 95% air/5% CO2. The volume of the incubation mixture was 37 μL with a final 0.1% DMSO. At each of the time points, the incubation was stopped by adding 150 μL quenching solution (100% acetonitrile, 0.1% formic acid containing bucetin as an internal standard for positive ESI mode). Subsequently, the mixtures were vortexed for 20 min and centrifuged at 4,000 RPM at 10° C. The supernatant (80 μL) was transferred to a clean 96-well plate and analyzed by LC-MS/MS. Midazolam at 1 μM with a final 0.1% DMSO was included as a positive control to verify assay performance. The percent parent remaining, intrinsic and predicted hepatic clearance and t1/2 were calculated. All samples were analyzed by LC-MS/MS using an AB Sciex API 4000 instrument, coupled to a Shimadzu LC-20AD LC Pump system. Separation was achieved using a Waters Atlantis T3 dC18 reverse phase HPLC column (20 mm×2.1 mm) at a flow rate of 0.5 mL/min. The mobile phase consisted of 0.1% formic acid in water (solvent A) and 0.1% formic acid in 100% acetonitrile (solvent B). Elution conditions are detailed below.
The ion optics of each test compound were optimized for their declustering potential (DP), […] (CE), collision-cell exit potential (CXP) and used in a selected ion monitoring experiment in the positive ion mode. The peak area ratio of each test compound to internal standard was then evaluated for stability. The extent of metabolism was calculated based on the disappearance of the test compound, compared to its initial concentration. The initial rates of clearance of the test compound were calculated using the linear regression plot of semi-log % remaining of the compound versus time. The elimination rate constant (k) of the linear regression plot was then used to determine t1/2 and the intrinsic clearance (CLint) using the following formula, where Chepatocyte (million cells/mL) is the cell density of the incubation:
The predicted hepatic clearance (CLhep) was calculated using the well stirred method with the following formula with CLint(in vivo) normalized based on liver weight: […]
The relevant physiological parameters of liver weight, blood flow, and hepatocellularity for various species are listed below: […]

[2] = Rat pharmacokinetics, intravenous dosing; assay type: in vivo, Sprague-Dawley rats; settings: for AUC(0-t) / Cmax / clearance / half-life: male, Sprague-Dawley, rat plasma, 1 mg/kg IV (0.5 mg/mL)
Description: Intravenous dosing: Compounds were formulated at 0.5 mg/mL in a solution comprising 5% polyethylene glycol 400 and 95% (12% (w/v) sulfobutyl-β-cyclodextrin in water) (v/v). Formulated compounds were sterile filtered through a 0.22 micron filter before dosing. Compounds were administered to male, 7-11-week-old Sprague-Dawley rats by jugular vein cannula infusion over 30 minutes at a dose of 1 mg/kg.
Sample collection: Blood collections of about 0.2 mL per time point were performed from jugular vein or other suitable site of each animal, into pre-chilled commercial EDTA-K2 tubes and placed on wet ice until centrifugation. Blood samples were processed for plasma by centrifugation at approximately 4° C., 3,200 g for 10 min. Plasma was collected and transferred into pre-labeled 96 well plate or polypropylene tubes, quick frozen over dry ice and kept at −60° C. or lower until LC-MS/MS analysis.
Data analysis: Plasma concentration versus time data was plotted in graph and analyzed by non-compartmental approaches using the Phoenix WinNonlin 6.3 software program. Related PK parameters were calculated according to dosing route, e.g., CL, Vdss and C0 for intravenous administration, Cmax, Tmax or % F for extravascular administration, and T1/2, AUC(0-t), AUC(0-inf), MRT(0-t), MRT(0-inf) for all routes.

[3] = rat, intravenous administration

Row | Structure (SMILES) | CLint relative to reference standard [1] | AUC(0-t) [2] | Cmax [2] | clearance [2] | half-life [2] | longer t1/2 as compared with Reference Compound A [2, 3] | lower clearance as compared with Reference Compound A [2, 3] | Half-life relative to reference [1]
1 | N#Cc1ccc(COc2cccc(C3CCN(Cc4nc5ccc(C(=O)O)cc5n4Cc4cncs4)CC3)n2)c(F)c1 [Compound 2] | not significantly different | 427 ± 27.7 ng·h/mL | 596 ± 42.3 ng/mL | 38.8 ± 2.55 mL/min/kg | 94.2 ± 35 min | ~2 fold | 30% | –
2 | Cc1ncsc1Cn1c(CN2CCC(c3cccc(OCc4ccc(C#N)cc4F)n3)CC2)nc2ccc(C(=O)O)cc21 [Compound 4] | significantly lower | – | – | – | – | – | – | significantly higher
3 | N#Cc1ccc(COc2ccnc(C3CCN(Cc4nc5ccc(C(=O)O)cc5n4Cc4cncs4)CC3)n2)c(F)c1 [Compound 20] | significantly lower | – | – | – | – | – | – | significantly higher
4 | N#Cc1ccc(COc2cccc(N3CCN(Cc4nc5ccc(C(=O)O)cc5n4Cc4cncs4)CC3)n2)c(F)c1 [Compound 30] | significantly lower | – | – | – | – | – | – | significantly higher
5 | N#Cc1ccc(COc2cccc(C3CCN(Cc4nc5ccc(C(=O)O)cc5n4C[C@@H]4CCO4)CC3)n2)c(F)c1 [Reference Compound A, reference compound] | – | 325 ± 16.8 ng·h/mL | 486 ± 37.9 ng/mL | 51.2 ± 2.59 mL/min/kg | 36.8 ± 20.6 min | – | – | –
6 | CC1(c2ccc(C#N)cc2F)Oc2cccc(C3CCN(Cc4nc5ccc(C(=O)O)cc5n4Cc4cncs4)CC3)c2O1 (stereo not shown) [Compound 31] | significantly lower | – | – | – | – | – | – | significantly higher
